Measured values: patent US6120765A, “Urokinase plasminogen activator fragments” (Shiseido Co. Ltd., priority 1993, dated 2000)
Where no end group is shown, it is not given here.

System: Primary human keratinocytes
Assay: Mitogenesis assay (3H-thymidine incorporation, DNA synthesis) in keratinocytes
Format: cell-based
Conditions: for 3H-thymidine uptake (mitogenesis) of Lys23-substituted 9-mers versus controls: keratinocytes, negative control no peptide, positive control K-GFD
Procedure: FIG. 1 is a bar graph which represents the effect of various uPA peptides on DNA synthesis in keratinocytes. Various concentrations of GFD peptides were tested in order to compare the mitogenic activity. After 24 h incubation with a peptide and 3H-thymidine, incorporated radioactivity was measured as described herein. Five concentrations were used for each peptide. For a given peptide the uppermost bar of the five represents 0.1 μM, the next lower bar 0.33 μM, the next lower bar 1 μM, the next lower bar 3.3 μM, and the lowest bar, 10 μM.
Mitogenesis Assay The effect of a peptide on mitogenesis was determined as a function of DNA synthesis as follows. Peptides (in phosphate buffered saline (PBS)) were added to the monolayers (grown as described herein) to a final concentration of either 0.1 μM, 0.33 μM, 1.0 μM, 3.3 μM, or 10 μM. 5 μL of ^3 H-thymidine (10 μCi/ml; Amersham, Arlington Heights, Ill.) in 150 μL KGM was added to the cultures concurrent with the peptides, and cells were harvested and lysed after 24 hours at 37° C. in distilled H2 O using a Tomtec cell harvester, and fixed with 70% ethanol. The lysed cells were then transferred to a nylon filter (Amersham, Arlington Heights, Ill.), Beta plate scintillation fluid was added (LKB), and radioactivity was measured using a Wallac 1205 beta plate counter. Control samples, incubated in the presence of phosphate-buffered saline (PBS) and ^3 H-thymidine gave control levels of radioactivity of approximately 400 cpm.
Cell Culture Primary human keratinocytes (Clonetics, Calif.) were cultured in 96-well plates (Corning, N.Y.) in serum-free medium (KGM medium, Clonetics) to 70-80% confluency on a monolayer culture at 37° C. in 5% C02.

Row | Sequence | 3H-thymidine uptake (mitogenesis) of Lys23-substituted 9-mers versus controls | concentration giving maximum level of mitogenic activity (24 h, tested 0.1-10 μM) [µM] | also measured
1 | SNAYFSDIH [A-GFD] | little different from negative control cells |  | 
2 | SNEYFSDIH [E-GFD] | inhibited mitogenesis |  | 
3 | SNKYFSNIH [9-mer, K-GFD printed in b183 with Asp instead of Asn] | increased uptake as compared with untreated cells | 1 | lowest concentration effective in stimulating mitogenesis (24 h, tested 0.1-10 μM): 0.33 µM
4 | SNRYFSDIH [R-GFD] | greatly increased |  | 
5 | TCVSNKYFSNIH [12-mer] |  |  | effect on keratinocyte stimulation (at other concentrations than 1 μM (0.1, 0.33, 3.3, 10 μM)): little, if any, effect; mitogenic activity (3H-thymidine incorporation) (only at 1 μM, 24 h): demonstrated mitogenic activity
6 | TCVSNKYFSNIHWCN [15-mer] |  | 3.3 | 
